Data published in publication PMC3750255, “Inhibition of Mycoplasma pneumoniae growth by FDA-approved anticancer and antiviral nucleoside and nucleobase analogs” (BMC Microbiology, 2013).
Values after ≈ are worked out from the molar mass of the structure shown. Read-outs that look alike come from different tables or passages of the source.

Columns and labels:
Mpn HPRT [1] = target: T1, Mpn HPRT (Mycoplasmoides pneumoniae, UniProt P75119); conditions: as substrate of Mpn HPRT
T1 sequence (P75119 1-175): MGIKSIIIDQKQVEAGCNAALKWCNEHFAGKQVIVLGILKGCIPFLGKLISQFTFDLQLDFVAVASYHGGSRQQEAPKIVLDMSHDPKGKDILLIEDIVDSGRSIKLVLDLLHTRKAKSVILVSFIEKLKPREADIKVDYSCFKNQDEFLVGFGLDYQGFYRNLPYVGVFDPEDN
Protocol: Data are from at least three independent measurements and are presented as mean ± standard deviation (SD).
(§5) The reaction was initiated by addition of the enzyme, and at 0, 5, 10, and 15 min intervals, 10 μl reaction mixture was withdrawn and spotted onto the DE81 filter paper and dried. The unreacted substrate was washed and the products were eluted and counted in a liquid scintillation counter. With [^3H]-Gua as substrate the reaction (in a total of 25 μl) was initiated by addition of the enzyme (10 μl), incubated at 37°C for 2 min, stopped by addition of 1 M HCl (10 μl), and placed immediately on ice. After neutralization, 15 μl of the mixture was spotted onto the DE81-filter paper. The filters were then washed, and the products were eluted and counted by liquid scintillation.

[2] = system: M. pneumoniae wild type (laboratory strain M129); assay: Mpn growth inhibition in 96-well plates (growth index A450/A560), wild type strain; format: cell-based, Mycoplasma pneumoniae; conditions: for MIC: Mycoplasmoides pneumoniae, read-out: Wild type MIC
Protocol: (§1) A series dilution of each compound in Mycoplasma growth medium was added to Mpn cultures in 96-well plates. The plates were sealed and incubated at 37°C. Mpn growth was monitored by using growth index value e.g. the ratio of absorbance at 450 nm and 560 nm of the culture medium. Thirty nucleoside and nucleobase analogs and a nucleoside transporter inhibitor were included, and two Mpn strains, wild type and a thyA mutant (lacking TS activity), were used.
(§2) Nucleoside and nucleobase analogs were dissolved in dimethyl sulfoxide (DMSO) as stock solutions and diluted with Mpn culture medium to the desired concentration immediately prior to use.
(§3) Mpn laboratory strain M129 wild type and a thyA mutant strain [31] were used in this study. Mpn was cultured at 37°C in a CO2 incubator using 75 cm^2 tissue culture flasks containing 50 ml Hayflick’s medium, and harvested at day 4 when the medium color change was observed. The cells were harvested and the pellet was resuspended in 6 ml fresh medium and the cfu/ml was determined by serial dilution (10-fold) and plating on broth agar plate. Colonies was counted and cfu/ml was calculated.
(§4) Inhibition studies were performed in 96-well plates containing 200 μl Mpn culture (approximately 10^6 cfu ml^-1) in Hayflick’s medium and 200 μl each compound in series dilutions (2-fold) with the growth medium, with three to four replicas. The plates were sealed with clear adhesive sheets and incubated at 37°C incubator. Absorbance ratio at 450 nm and 560 nm was used as Mpn growth index, which was measured daily, and by visual detection for at least 8 days, as previously described. […] The MICs (minimal inhibitory concentration required to inhibit Mpn growth to 90%) were determined as the lowest concentration at which the growth index was ≈ 10% of the control values (at the time when the control culture medium color turned yellow), essentially as described.

[3] = system: M. pneumoniae thyA mutant (lacking TS activity); assay: microbe, parasite or virus in culture; format: cell-based, Mycoplasma pneumoniae; conditions: for MIC: Mycoplasmoides pneumoniae, read-out: thyA mutant MIC
Protocol: as §1, §2, §3, §4

human HPRT = target: T2, human HPRT (Homo sapiens, UniProt P00492); assay: HPRT inhibition, DE-81 filter paper assay; format: biochemical
T2 construct: made in house
T2 sequence (P00492 1-218): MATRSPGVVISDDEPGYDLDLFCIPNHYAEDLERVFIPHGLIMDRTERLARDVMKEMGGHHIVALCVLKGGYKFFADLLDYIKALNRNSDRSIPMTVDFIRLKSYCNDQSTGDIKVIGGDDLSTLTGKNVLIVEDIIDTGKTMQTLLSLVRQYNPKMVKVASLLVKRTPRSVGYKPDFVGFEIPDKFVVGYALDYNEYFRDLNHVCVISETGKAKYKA
Protocol: as §5

Mpn HPRT [4] = target: T1, Mpn HPRT; assay: biochemical; conditions: substrate hypoxanthine, 10 μM [3H]-hypoxanthine
Protocol: as §5

[5] = minimal concentration producing 90% inhibition, wild type Mpn

SMILES	MIC [2] [µg/mL]	MIC [3] [µg/mL]	other results
Nc1nc2nc[nH]c2c(=O)[nH]1 [Gua, guanine]	–	–	Hill coefficient (Mpn HPRT [1]): 3.5; Vmax (Mpn HPRT [1]): 2.7 ± 0.1 µmol/min/mg; S0.5 (Mpn HPRT [1]; Hill equation): 107.6 ± 6.2 µM
Cc1cn([C@H]2C=C[C@@H](CO)O2)c(=O)[nH]c1=O [Stavudine]	7.8 (≈ 34.8 µM)	17.8 (≈ 79.4 µM)	–
NC(=O)c1ncn([C@@H]2O[C@H](CO)[C@@H](O)[C@H]2O)n1 [Ribavirin]	62.5 (≈ 256 µM)	> 500	Inhibition of wild type Mpn growth (in words) ([2]; wild type Mpn): inhibited wild type Mpn
Oc1ncnc2[nH]ncc12 [Allopurinol]	–	> 500	MIC [2, 5]: > 500 µg/mL
Cn1c(=O)c2[nH]cnc2n(C)c1=O [Theophylline]	> 500	> 500	IC50 (human HPRT): 1.58 ± 0.134 mM; IC50 (Mpn HPRT [4]): > 4 mM
CC(C)(C)C(=O)OCOP(=O)(COCCn1cnc2c(N)ncnc21)OCOC(=O)C(C)(C)C [Adefovir depivoxil]	–	–	Wild type MIC [2, 5]: > 500 µg/mL; thyA mutant MIC ([3]; minimal concentration producing 90% inhibition, thyA mutant Mpn): > 500 µg/mL
CC(C)[C@H](N)C(=O)OCCOCn1cnc2c(=O)[nH]c(N)nc21 [Valacyclovir]	> 500	> 500	Inhibition of Mpn growth (in words) ([2]; strain not specified): did not inhibit Mpn growth
Cn1c(=O)c2c(ncn2CC(O)CO)n(C)c1=O (stereo not shown) [7-(2,3-dihydroxypropyl)theophylline]	> 500	> 500	–
Nc1nc(O)c2ncn(COC(CO)CO)c2n1 [Gancyclovir]	7.8 (≈ 30.6 µM)	> 500	Inhibition of wild type Mpn growth (in words) ([2]; wild type Mpn): inhibited wild type Mpn
Nc1ncnc2c1ncn2[C@@H]1O[C@H](CO)[C@@H](O)[C@@H]1O [Arabinosyl adenine]	–	> 500	MIC [2, 5]: > 500 µg/mL
Cn1cnc([N+](=O)[O-])c1Sc1ncnc2nc[nH]c12 [Azathioprine]	> 500	> 500	–
Cn1c(=O)c2c(ncn2C)n(C)c1=O [Caffeine]	–	> 500	MIC [2, 5]: > 500 µg/mL; IC50 (human HPRT; IC50 Human HPRT, substrate hypoxanthine, 10 μM [3H]-hypoxanthine): 2.51 ± 0.156 mM
Nc1nc(=O)[nH]cc1F [5-fluorocytosine]	31.2 (≈ 242 µM)	31.2 (≈ 242 µM)	–
COc1c(C)c2c(c(O)c1C/C=C(\C)CCC(=O)OCCN1CCOCC1)C(=O)OC2 [Mycophenolate mofetil]	250 (≈ 577 µM)	250 (≈ 577 µM)	–
Nc1ccn([C@H]2CC[C@@H](CO)O2)c(=O)n1 [Zalcitabine]	> 500	> 500	–
